From US20240067651A1 (Biohaven Therapeutics Ltd., priority 2019, published 2024)

Tests used:
[1] = Stability in Simulated Gastric Fluid (SGF); assay type: in vitro ADME; design: key: % parent compound remaining relative to 0-minute sample
Procedure, shortened: (§1)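 2 μg/mL final; SGF + pepsin pH 1.2 or SIF + pancreatin pH 6.8; 37° C, 150 rpm, 0–60 min. ACN quench with propranolol IS, LC-MS/MS. % parent vs 0 min; t1/2 from ln plot.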

[2] = Stability in Simulated Intestinal Fluid (SIF); assay type: in vitro ADME; design: key: % parent compound remaining relative to 0-minute sample
Procedure, shortened: as §1

[3] = Caco-2 Permeability Assay; assay type: in vitro ADME, human; conditions: human
Procedure, shortened: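 Bidirectional transport at 37 °C for 90 min, 10 μM donor concentration, with or without Pgp inhibitor, across 21-day Caco-2 monolayers with TEER >600 […] in HEPES-buffered HBSS, pH 7.4. LC-MS/MS of donor and receiver samples gives Papp, B→A/A→B efflux ratio and mass recovery.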

Plasma Stability = assay type: in vitro ADME, human
Procedure, shortened: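 Parent compound quantified by LC-MS/MS after acetonitrile precipitation, reported as percent of control remaining (triplicate). Incubation: 1 hour, 37° C, fresh human plasma, compound at 1 μM.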

[4] = % remaining at 1 h, SGF with pepsin pH 1.2, 2 μg/mL, 37° C.
[5] = % remaining at 1 h, SIF with pancreatin pH 6.8, 2 μg/mL, 37° C.
[6] = Caco-2, pH 7.4, donor 10 μM, 90 minutes, 37° C., direction not given
[7] = % remaining at 1 h, human plasma, 1 μM, 37° C.
[8] = % remaining at 1 h in simulated gastric fluid
[9] = % remaining at 1 h in simulated intestinal fluid
[10] = Caco-2, pH 7.4, Caco-2 monolayer
[11] = % remaining at 1 h in human plasma
[12] = % @ 1 h (remaining) in simulated gastric fluid
[13] = % @ 1 h (remaining) in simulated intestinal fluid
[14] = % @ 1 h (remaining) in human plasma

CC(C)OCCn1c(=S)n2c(=O)c3c1ccn3COC(=O)C(C)(C)CCCCC(C)(C)C(=O)OC2 [Example 118, 5,5,10,10-Tetramethyl-16-[2-(propan-2-yloxy)ethyl]-15-sulfanylidene-3,12-dioxa-1,14,16-triazatricyclo[12.5.2.0^{17,20}]henicosa-17(20),18-diene-4,11,21-trione]
SGF [1, 4]: 94% | SIF [2, 5]: 76% | Papp at 90 min, 10 µM [3, 6]: 6.6 ×10⁻⁶ cm/s | human Plasma stability (Plasma Stability; [7]): 73%

CC(C)OCCn1c2nc(=O)c3c1ccn3COC(=O)C(C)(C)CCCCC(C)(C)C(=O)OCS2 [Example 119, 8,8,13,13-Tetramethyl-22-[2-(propan-2-yloxy)ethyl]-6,15-dioxa-17-thia-4,19,22-triazatricyclo[16.3.1.0^{4,21}]docosa-1(21),2,18-triene-7,14,20-trione]
SGF [1, 4]: 94% | SIF [2, 5]: 98% | Papp at 90 min, 10 µM [3, 6]: 31.7 ×10⁻⁶ cm/s | human Plasma stability (Plasma Stability; [7]): 90%

CC(C)OCCn1c(=S)[nH]c(=O)c2c1ccn2COC(=O)OCCOCCNC(=O)OC(C)(C)C [Example 120]
SGF [1, 8]: 83% remaining | SIF [2, 9]: 64% remaining | Papp at 90 min, 10 µM [3, 10]: 14.9 ×10⁻⁶ cm/s | human Plasma stability (Plasma Stability; [11]): 30% remaining

CC(C)OCCn1c(SCOC(=O)OCCOCCNC(=O)OC(C)(C)C)nc(=O)c2c1ccn2COC(=O)OCCOCCNC(=O)OC(C)(C)C [Example 121]
SGF [1, 8]: 69% remaining | SIF [2, 9]: 56% remaining | Papp at 90 min, 10 µM [3, 10]: 1.19 ×10⁻⁶ cm/s | human Plasma stability (Plasma Stability; [11]): 34% remaining

CC(C)OCCn1c(=S)n(COC(=O)OCCOCCNC(=O)OC(C)(C)C)c(=O)c2c1ccn2COC(=O)OCCOCCNC(=O)OC(C)(C)C [Example 122]
SGF [1, 8]: 85% remaining | SIF [2, 9]: 22% remaining | Papp at 90 min, 10 µM [3, 10]: 19.3 ×10⁻⁶ cm/s | human Plasma stability (Plasma Stability; [11]): 50% remaining

CC(C)OCCn1c(=S)[nH]c(=O)c2c1ccn2COC(=O)OCCOCCN.O=C(O)C(F)(F)F [Example 123]
SGF [1, 8]: 97% remaining | SIF [2, 9]: 1% remaining at | Papp at 90 min, 10 µM [3, 10]: 2.44 ×10⁻⁶ cm/s | human Plasma stability (Plasma Stability; [11]): 65% remaining

CC(C)OCCn1c(=S)[nH]c(=O)c2c1ccn2COC(=O)OC1CN(C(=O)OC(C)(C)C)C1 [Example 125]
SGF [1, 8]: 85% remaining | SIF [2, 9]: 17% remaining | Papp at 90 min, 10 µM [3, 10]: 24.9 ×10⁻⁶ cm/s | human Plasma stability (Plasma Stability; [11]): 3% remaining

CC(C)OCCn1c(=S)[nH]c(=O)c2c1ccn2COC(=O)CCC(=O)OC(C)(C)C [Example 126]
SGF [1, 8]: 100% | SIF [2, 9]: 67% remaining | Papp at 90 min, 10 µM [3, 10]: 13.5 ×10⁻⁶ cm/s | human Plasma stability (Plasma Stability; [11]): 2% remaining

CC(C)OCCn1c(=S)[nH]c(=O)c2c1ccn2COC(=O)C1CN(C(=O)OC(C)(C)C)C1 [Example 127]
SGF [1, 8]: 80% remaining | SIF [2, 9]: 6% remaining | Papp at 90 min, 10 µM [3, 10]: 7.79 ×10⁻⁶ cm/s | human Plasma stability (Plasma Stability; [11]): 1% remaining

CC(C)OCCn1c(=S)[nH]c(=O)c2c1ccn2COC(=O)[C@H]1CCN(C(=O)OC(C)(C)C)C1 [Example 130]
SGF [1, 8]: 61% remaining | SIF [2, 9]: 64% remaining | Papp at 90 min, 10 µM [3, 10]: 17.6 ×10⁻⁶ cm/s | human Plasma stability (Plasma Stability; [11]): 4% remaining

CC(C)OCCn1c(SCOC(=O)C2CCN(C(=O)OC(C)(C)C)CC2)nc(=O)c2c1ccn2COC(=O)CCC(=O)OC(C)(C)C [Example 131]
SGF [1, 8]: 99% remaining | SIF [2, 9]: 75% remaining | Papp at 90 min, 10 µM [3, 10]: 6.58 ×10⁻⁶ cm/s | human Plasma stability (Plasma Stability; [11]): 1% remaining

CC(C)OCCn1c(=S)n(COC(=O)C2CCN(C(=O)OC(C)(C)C)CC2)c(=O)c2c1ccn2COC(=O)CCC(=O)OC(C)(C)C [Example 132]
SGF [1, 8]: 9% remaining | SIF [2, 9]: 71% remaining | Papp at 90 min, 10 µM [3, 10]: 4.29 ×10⁻⁶ cm/s | human Plasma stability (Plasma Stability; [11]): 11% remaining

CC(C)OCCn1c(SCOC(=O)C2CCNCC2)nc(=O)c2c1ccn2COC(=O)CCC(=O)O [Example 133]
SGF [1, 8]: 82% remaining | SIF [2, 9]: 97% remaining | Papp at 90 min, 10 µM [3, 10]: < 0.198 ×10⁻⁶ cm/s | human Plasma stability (Plasma Stability; [11]): 7% remaining

CC(C)OCCn1c(=S)[nH]c(=O)c2c1ccn2COC(=O)C[C@H](NC(=O)CCCCCCCCCCC(=O)O)C(=O)O [Example 142, 11-{[(1S)-1-carboxy-3-oxo-3-({4-oxo-1-[2-(propan-2-yloxy)ethyl]-2-sulfanylidene-1H,2H,3H,4H,5H-pyrrolo[3,2-d]pyrimidin-5-yl}methoxy)propyl]carbamoyl}undecanoic acid]
SGF [1, 4]: 100% remaining | SIF [2, 5]: 97% remaining | Papp at 90 min, 10 µM [3, 6]: < 0.19 ×10⁻⁶ cm/s | human Plasma stability (Plasma Stability; [7]): 97% remaining

CC(C)OCCn1c(=S)n(COC(=O)C(C)(C)C)c(=O)c2c1ccn2COC(=O)C(C)(C)C [Example 143, 2,2-Dimethyl-propionic acid 5-(2,2-dimethyl-propionyloxymethyl)-1-(2-isopropoxy-ethyl)-4-oxo-2-thioxo-1,2,4,5-tetrahydro-pyrrolo[3,2-d]pyrimidin-3-ylmethyl ester]
SGF [1, 4]: 62% | SIF [2, 5]: 82% | Papp at 90 min, 10 µM [3, 6]: 3 ×10⁻⁶ cm/s | human Plasma stability (Plasma Stability; [7]): 21%

CCCC(=O)OCn1ccc2c1c(=O)[nH]c(=S)n2CCOC(C)C [Example 154]
SGF [1, 12]: 82% @ 1 h | SIF [2, 13]: 0% @ 1 h | Papp at 90 min, 10 µM [3, 10]: 4.03 ×10⁻⁶ cm/s | human Plasma stability (Plasma Stability; [14]): 9% @ 1 h

CCCC(=O)OCSc1nc(=O)c2c(ccn2COC(=O)CCC)n1CCOC(C)C [Example 155]
SGF [1, 12]: 73% @ 1 h | SIF [2, 13]: 0% @ 1 h | Papp at 90 min, 10 µM [3, 10]: 2.79 ×10⁻⁶ cm/s | human Plasma stability (Plasma Stability; [14]): 1% @ 1 h

CCC(=O)OCn1ccc2c1c(=O)[nH]c(=S)n2CCOC(C)C [Example 156]
SGF [1, 12]: 99% @ 1 h | SIF [2, 13]: 1% @ 1 h | Papp at 90 min, 10 µM [3, 10]: 6.55 ×10⁻⁶ cm/s | human Plasma stability (Plasma Stability; [14]): 0% @ 1 h

CC(C)OCCn1c(=S)[nH]c(=O)c2c1ccn2COC(=O)c1ccccc1.O=C(O)C(F)(F)F [Example 157]
SGF [1, 12]: 96% @ 1 h | SIF [2, 13]: 20% @ 1 h | Papp at 90 min, 10 µM [3, 10]: 7.3 ×10⁻⁶ cm/s | human Plasma stability (Plasma Stability; [14]): 0% @ 1 h

CC(=O)OCn1ccc2c1c(=O)[nH]c(=S)n2CCOC(C)C [Example 159]
SGF [1, 12]: 79% @ 1 h | SIF [2, 13]: 83% @ 1 h | Papp at 90 min, 10 µM [3, 10]: 8.42 ×10⁻⁶ cm/s | human Plasma stability (Plasma Stability; [14]): 0% @ 1 h

CCCCN(C)C(=O)OCSc1nc(=O)c2[nH]ccc2n1CCOC(C)C.O=C(O)C(F)(F)F [Example 160]
SGF [1, 12]: 92% @ 1 h | SIF [2, 13]: 95% @ 1 h | Papp at 90 min, 10 µM [3, 10]: 15.8 ×10⁻⁶ cm/s | human Plasma stability (Plasma Stability; [14]): 99% @ 1 h

CC(C)CN(C)C(=O)OCSc1nc(=O)c2c(ccn2COC(=O)N(C)CC(C)C)n1CCOC(C)C [Example 161]
SGF [1, 12]: 80% @ 1 h | SIF [2, 13]: 80% @ 1 h | Papp at 90 min, 10 µM [3, 10]: 31.3 ×10⁻⁶ cm/s | human Plasma stability (Plasma Stability; [14]): 99% @ 1 h

CCN(C)C(=O)OCSc1nc(=O)c2[nH]ccc2n1CCOC(C)C [Example 163]
SGF [1, 12]: 99% @ 1 h | SIF [2, 13]: 96% @ 1 h | Papp at 90 min, 10 µM [3, 10]: 4.2 ×10⁻⁶ cm/s | human Plasma stability (Plasma Stability; [14]): 90% @ 1 h

CC(C)OCCn1c(SCOC(=O)N(C)C)nc(=O)c2[nH]ccc21.O=C(O)C(F)(F)F [Example 164]
SGF [1, 12]: 100% @ 1 h | SIF [2, 13]: 99% @ 1 h | Papp at 90 min, 10 µM [3, 10]: 4.2 ×10⁻⁶ cm/s | human Plasma stability (Plasma Stability; [14]): 98% @ 1 h

CC(C)OCCn1c(SCOC(=O)N(C)C)nc(=O)c2c1ccn2COC(=O)N(C)C [Example 165, trifluoroacetic acid [2-({[(dimethylcarbamoyl)oxy]methyl}sulfanyl)-4-oxo-1-[2-(propan-2-yloxy)ethyl]-1H,4H,5H-pyrrolo[3,2-d]pyrimidin-5-yl]methyl N,N-dimethylcarbamate]
SGF [1, 12]: 84% @ 1 h | SIF [2, 13]: 99% @ 1 h | Papp at 90 min, 10 µM [3, 10]: 2.56 ×10⁻⁶ cm/s | human Plasma stability (Plasma Stability; [14]): 97% @ 1 h
